The source of these data is ChEMBL document CHEMBL1828567, “2-Phenyl and 2-heterocyclic-4-(3-(pyridin-2-yl)-1H-pyrazol-4-yl)pyridines as inhibitors of TGF-β1 and activin A signalling” (Bioorg Med Chem Lett, 2011).

A value given as a limit tells only on which side of the number the result lay.

One test addresses T1, TGF-beta receptor type-1 (Homo sapiens, UniProt P36897).
T1 sequence (P36897 whole entry): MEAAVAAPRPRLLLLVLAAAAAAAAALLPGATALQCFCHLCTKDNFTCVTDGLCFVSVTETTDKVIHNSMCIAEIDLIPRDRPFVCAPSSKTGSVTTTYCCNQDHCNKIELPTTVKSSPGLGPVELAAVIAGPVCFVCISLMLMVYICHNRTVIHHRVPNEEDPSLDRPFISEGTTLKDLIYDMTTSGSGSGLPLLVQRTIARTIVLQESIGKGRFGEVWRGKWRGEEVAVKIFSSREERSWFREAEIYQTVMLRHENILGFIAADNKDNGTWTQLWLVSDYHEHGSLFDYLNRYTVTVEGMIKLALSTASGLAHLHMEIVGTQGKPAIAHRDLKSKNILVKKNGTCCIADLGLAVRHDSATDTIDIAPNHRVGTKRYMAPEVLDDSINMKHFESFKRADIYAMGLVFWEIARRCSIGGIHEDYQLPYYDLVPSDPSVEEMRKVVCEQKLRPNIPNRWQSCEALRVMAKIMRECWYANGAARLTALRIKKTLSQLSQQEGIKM
The test can be described thus: Inhibition of TGF-beta1 signaling in human HEK293 cells transfected with luciferase and FAST-2 gene expression vector A3-LUX after 16 hrs by luciferase reporter gene assay. Format: cell-based.
For `CN(C)CCOc1ccc(-c2cc(-c3c[nH]nc3-c3ccccn3)ccn2)cc1`, it took 0.019 µM to reach half-maximal inhibition (IC50).

Consider `c1ccc(-c2n[nH]cc2-c2ccnc(-n3cccn3)c2)nc1`, for which the concentration for half-maximal inhibition (IC50) – broadly, the concentration needed to halve the response being measured – was 0.077 µM.

On to `c1ccc(-c2n[nH]cc2-c2ccnc(-n3ccnc3)c2)nc1`, for which the IC50 came out at 0.088 µM.

In the case of `Cn1cc(-c2cc(-c3c[nH]nc3-c3ccccn3)ccn2)cn1`, inhibition was half-maximal at 0.068 µM (IC50). The IC50 values of the last two molecules are within 1.5-fold of each other.

In the case of `CN1CCN(c2ccc(-c3cc(-c4c[nH]nc4-c4ccccn4)ccn3)cn2)CC1`, the IC50 was 0.032 µM.

Molecule `CN(C)CCCOc1ccc(-c2cc(-c3c[nH]nc3-c3ccccn3)ccn2)cn1` showed an IC50 of 0.011 µM.

A further test deals with T2, Activin receptor type-1B (Homo sapiens, UniProt P36896).
T2 sequence (P36896 whole entry): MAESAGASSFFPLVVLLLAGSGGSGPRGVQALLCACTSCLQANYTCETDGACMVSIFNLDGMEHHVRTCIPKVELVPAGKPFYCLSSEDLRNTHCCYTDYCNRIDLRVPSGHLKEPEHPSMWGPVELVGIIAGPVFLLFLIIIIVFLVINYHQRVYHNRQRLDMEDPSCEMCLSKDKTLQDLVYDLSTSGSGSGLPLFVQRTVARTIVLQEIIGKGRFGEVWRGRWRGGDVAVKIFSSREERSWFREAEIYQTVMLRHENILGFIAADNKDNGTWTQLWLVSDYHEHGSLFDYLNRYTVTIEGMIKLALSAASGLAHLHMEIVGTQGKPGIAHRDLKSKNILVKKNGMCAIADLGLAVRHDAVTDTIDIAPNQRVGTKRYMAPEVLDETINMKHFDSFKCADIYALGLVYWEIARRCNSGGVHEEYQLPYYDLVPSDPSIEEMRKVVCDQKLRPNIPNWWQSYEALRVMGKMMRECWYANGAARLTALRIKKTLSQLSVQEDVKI
The test can be described thus: Inhibition of Activin A in human HEK293 cells transfected with luciferase and FAST-2 gene expression vector A3-LUX after 16 hrs by luciferase reporter gene assay. The format is cell-based. Background: A reporter such as luciferase makes a cellular process visible.
As to `O=C(NC1CCOCC1)c1ccc(-c2cc(-c3c[nH]nc3-c3ccccn3)ccn2)cc1`, the IC50 is > 1 µM.
